PMC8266232, “Design, synthesis, and analysis of antiproliferative and apoptosis-inducing activities of nitrile derivatives containing a benzofuran scaffold: EGFR inhibition assay and molecular modelling study” (Journal of Enzyme Inhibition and Medicinal Chemistry, 2021)
Where two headings read alike, the source gives them in different places.

Experiments:
[1] = test system: HePG2, HCT-116, MCF-7, PC3, HeLa cell lines; test: MTT antiproliferative assay, IC50 range over the cancer cell line panel; format: cell-based; settings: Homo sapiens
Method: (§1) The in vitro antiproliferative activity of all synthesised compounds was evaluated by an MTT assay according to the reported method[47]^,[48].
(§2) 2. Experimental procedure
(§3) 2.1. Antiproliferative screening
(§4) The in vitro antiproliferative activity of all synthesized compounds was evaluated by an MTT assay according to the reported method using five different human cancer cell lines, including […]
(§5) cervical carcinoma (HeLa), and human prostate cancer (PC-3). The cell lines were obtained from ATCC via a holding company for biological products and vaccines (VACSERA), Cairo, Egypt. The MTT assay is a colorimetric assay used for measuring the cellular growth based on the reduction of the yellow MTT to a purple formazan derivative by mitochondrial succinate dehydrogenase in viable cells. The color intensity of the formazan dye is correlated to the number of viable cells. The […]
(§6) IC50% values were calculated using dose response curves. The percentage of relative cell viability was calculated as (A570 of treated samples)/(A570 of untreated sample) × 100. The cytotoxic activity was defined as the concentration of the compound that caused 50% growth inhibition compared with the growth of an untreated cell. […]

[2] = test system: PC3 cells (human prostate carcinoma); test: MTT antiproliferative assay, PC3; format: cell-based; settings: PC-3, PC3, triplicate, read-out: In vitro cytotoxicity IC50, PC3
Method: as §1, §2, §3, §4, §5, §6

[3] = test system: HeLa cells (cervical carcinoma); test: MTT antiproliferative assay, HeLa; format: cell-based, human; settings: triplicate, read-out: In vitro cytotoxicity IC50, HeLa
Method: as §1, §2, §3, §4, §5, §6

[4] = test system: MCF-7 cells (human breast adenocarcinoma); test: MTT antiproliferative assay, MCF-7; format: cell-based; settings: MCF-7, triplicate, read-out: In vitro cytotoxicity IC50, MCF-7
Method: as §1, §2, §3, §4, §5, §6

[5] = test system: HePG2 cells (hepatocellular carcinoma); test: MTT antiproliferative assay, HePG2; format: cell-based, human; settings: HePG2, triplicate, read-out: In vitro cytotoxicity IC50, HePG2
Method: as §1, §2, §3, §4, §5, §6

[6] = test system: HCT-116 cells (colorectal carcinoma); test: MTT antiproliferative assay, HCT-116; format: cell-based, human; settings: HCT-116, triplicate, read-out: In vitro cytotoxicity IC50, HCT-116
Method: as §1, §2, §3, §4, §5, §6

WI38 normal cell = test: MTT cytotoxicity on normal fibroblast cells; format: cell-based; settings: Homo sapiens, WI-38; MTT assay, non tumour normal cell WI38
EGFR TK = target: T1, EGFR TK (Homo sapiens, UniProt P00533); test: EGFR TK inhibition assay (luminescent, Kinase-Glo MAX); format: biochemical
T1 construct: add 20 μl of diluted EGFR enzyme and incubate at 30°C for 40
T1 sequence (P00533 25-1210): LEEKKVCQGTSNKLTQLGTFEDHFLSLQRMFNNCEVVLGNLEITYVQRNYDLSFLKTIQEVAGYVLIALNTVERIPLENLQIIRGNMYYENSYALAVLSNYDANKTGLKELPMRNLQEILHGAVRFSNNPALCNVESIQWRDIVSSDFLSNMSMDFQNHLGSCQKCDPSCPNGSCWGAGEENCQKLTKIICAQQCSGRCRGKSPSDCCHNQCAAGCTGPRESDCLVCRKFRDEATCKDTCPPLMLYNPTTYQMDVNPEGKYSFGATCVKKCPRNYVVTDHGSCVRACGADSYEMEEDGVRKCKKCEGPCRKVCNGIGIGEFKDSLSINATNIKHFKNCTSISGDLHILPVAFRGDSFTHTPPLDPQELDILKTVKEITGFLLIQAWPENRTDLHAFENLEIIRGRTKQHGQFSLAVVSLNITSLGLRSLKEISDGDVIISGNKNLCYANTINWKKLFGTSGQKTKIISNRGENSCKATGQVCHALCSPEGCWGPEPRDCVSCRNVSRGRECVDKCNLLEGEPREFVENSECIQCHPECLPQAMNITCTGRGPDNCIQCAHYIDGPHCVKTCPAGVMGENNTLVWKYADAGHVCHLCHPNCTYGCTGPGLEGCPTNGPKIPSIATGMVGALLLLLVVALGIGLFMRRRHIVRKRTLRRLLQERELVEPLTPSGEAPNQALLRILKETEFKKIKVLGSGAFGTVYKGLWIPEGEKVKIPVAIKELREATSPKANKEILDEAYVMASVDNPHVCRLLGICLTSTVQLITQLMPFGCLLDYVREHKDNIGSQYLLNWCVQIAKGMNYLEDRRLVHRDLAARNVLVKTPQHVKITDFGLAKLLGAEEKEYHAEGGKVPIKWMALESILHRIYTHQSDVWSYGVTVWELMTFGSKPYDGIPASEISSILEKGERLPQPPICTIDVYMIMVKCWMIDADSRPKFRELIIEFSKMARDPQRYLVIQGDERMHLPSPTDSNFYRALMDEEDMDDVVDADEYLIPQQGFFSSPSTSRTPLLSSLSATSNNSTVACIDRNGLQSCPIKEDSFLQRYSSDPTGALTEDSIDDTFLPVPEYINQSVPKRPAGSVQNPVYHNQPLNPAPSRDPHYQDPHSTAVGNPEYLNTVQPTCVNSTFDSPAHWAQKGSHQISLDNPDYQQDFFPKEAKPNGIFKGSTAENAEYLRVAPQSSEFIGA
Method: 2.2. Epidermal growth factor inhibition assay
In vitro luminescent EGFR tyrosine kinase assay, using Kinase-Glo® MAX as a detection reagent using DP‐Glo™ reagent that measures the adenosine diphosphate (ADP) formed from a kinase reaction, were performed; this luminescent signal positively correlates with ADP amount and kinase activity. In 17 μl of distilled water, 6 μl of Kinase assay buffer and 1 μl ATP and 1 μl PTK substrate were mixed (master mixture). In every well, mix 20 μl of the master mixture and 5 μl of Inhibitor solution (Test Inhibitor) for positive control, and use 5 μl of the same solution without inhibitor (Inhibitor buffer) as the blank solution; add 20 μl of diluted EGFR enzyme and incubate at 30°C for 40

MCF-7 cells [7] = test: Annexin V-FITC/PI apoptosis assay, MCF-7; settings: MCF-7, 10 µM, 24 h
Method: (§7) A comparison was made to the control (DMSO) and reference (gefitinib).
(§8) The cell line samples were analysed using FACSCalibur flow cytometer.
(§9) with PI. The cells were compared with the control, which was treated with DMSO.
Analysis of cellular apoptosis
(§10) concentration, respectively, and then incubated for 24 h. Following incubation, 1 –5 × 10^5 cells were
(§11) harvested and suspended in 500 µ L of the binding buffer, 5 µ L of annexin V-FITC, and 5 µL of PI.
(§12) annexin V-FITC conjugate is specially engineered to produce an enhanced fluorescence signal and
(§13) photostability. The annexin V-FITC kit included annexin V-FITC for detecting apoptosis as well as PI
(§14) for detecting necrosis. Thus, apoptosis and necrosis could be effectively differentiated. Detection and
(§15) analysis of the annexin V-FITC binding by flow cytometry was conducted using a FITC signal
(§16) detector (typically FL1). PI staining was evaluated by a phycoerythrin emission signal detector

HCT-116 cells [8] = test: Cell cycle analysis by PI flow cytometry, HCT-116; settings: HCT-116, 10 µM, 24 h
Method: as §7
(§17) Cell cycle analysis and induction of apoptosis
(§18) Flow cytometry analysis of the cell cycle distribution
(§19) incubation period, the cells were collected, centrifuged, and ﬁxed with ice-cold ethanol (70%). The cells were subsequently treated with a buffer containing RNAse A and 0.1% Triton X-100, and stained
(§20) with PI. The cells were compared with the control, which was treated with DMSO. The DNA content
was measured by flow cytometry [50-52].

MCF-7 cells [9] = test: Cell cycle analysis by PI flow cytometry, MCF-7; settings: MCF-7, 10 µM, 24 h
Method: as §7, §17, §18, §19, §20
was measured by flow cytometry [50-52].

HCT-116 cells [10] = test: Annexin V-FITC/PI apoptosis assay, HCT-116; settings: HCT-116, 10 µM, 24 h
Method: as §7, §8, §9
Analysis of cellular apoptosis
as §10, §11, §12, §13, §14, §15, §16

[11] = HePG2, HCT-116, MCF-7, PC3, HeLa, read-out: IC50 range over all tested cancer cell lines
[12] = Homo sapiens, HCT-116, MTT assay
[13] = four cell lines, without HCT-116, read-out: IC50 range against HePG2, MCF-7, PC3, and HeLa cell lines

CN(C)C/C=C/C(=O)Nc1cc2c(Nc3ccc(F)c(Cl)c3)ncnc2cc1O[C@H]1CCOC1 [Afatinib, reference compound]
IC50 [1, 11]: 5.5 to 11.2 µM
IC50 [2]: 7.6 ± 0.6 µM
IC50 ([3]; Homo sapiens): 6.3 ± 0.69 µM
IC50 ([4]; Homo sapiens, MCF7, MTT assay): 7.23 µM
IC50 ([4]; MTT assay): 7.2 ± 0.5 µM
IC50 ([5]; Homo sapiens, HepG2, MTT assay): 5.53 µM
IC50 ([5]; MTT assay): 5.5 ± 0.24 µM
IC50 [6, 12]: 11.2 µM
IC50 ([6]; MTT assay): 11.2 ± 1.11 µM

COc1ccc(CCNc2nccc(-c3cc4ccccc4o3)c2C#N)cc1 [Compound 12, 4-(Benzofuran-2-yl)-2-(4-methoxyphenethylamino)nicotinonitrile]
melting point: 156 to 158 °C
IC50 [2]: 93.5 ± 4.4 µM
IC50 ([3]; Homo sapiens): 85.4 ± 4.7 µM
IC50 (WI38 normal cell): 76.3 ± 4.14 µM
IC50 ([4]; Homo sapiens, MCF7, MTT assay): 61.5 ± 3.5 µM
IC50 ([5]; Homo sapiens, HepG2, MTT assay): 70.5 ± 3.8 µM
IC50 [6, 12]: 49.7 ± 2.9 µM

N#Cc1c(-c2cc3ccccc3o2)ccnc1NCCCO [Compound 8, 4-(Benzofuran-2-yl)-2-(3-hydroxypropylamino)nicotinonitrile]
melting point: 124 to 126 °C
IC50 [1, 11]: 13.8 to 58.8 µM
IC50 [2]: 36.7 ± 2.8 µM
IC50 (EGFR TK): 4.24 µM
IC50 ([3]; Homo sapiens): 58.8 ± 3.7 µM
IC50 (WI38 normal cell): 151 ± 8.22 µM
IC50 ([5]; Homo sapiens, HepG2, MTT assay): 16.1 to 23.7 µM
IC50 ([5]; MTT assay): 23.7 ± 1.8 µM
IC50 [6, 12]: 8.81 to 13.8 µM
IC50 ([6]; MTT assay): 13.8 ± 1.3 µM

COc1cc2ncnc(Nc3ccc(F)c(Cl)c3)c2cc1OCCCN1CCOCC1 [Gefitinib, reference compound]
Necrosis (MCF-7 cells [7]; control 0.15): 1.64%
Early apoptosis (MCF-7 cells [7]; control 0.16): 4.28%
Late apoptosis (MCF-7 cells [7]; control 0.24): 7.63%
Apoptosis, Total (MCF-7 cells [7]; control 0.55): 13.55%
%Pre/G1 (HCT-116 cells [8]; control 0.39, '% Apoptosis' in Figure 5A): 16.49%
%G2/M (HCT-116 cells [8]; control 4.19): 21.71%
%S (HCT-116 cells [8]; control 25.21): 13.34%
%G0/G1 (HCT-116 cells [8]; control 70.21): 48.37%
%Pre/G1 (MCF-7 cells [9]; control 0.55, '% Apoptosis' in Figure 6A): 13.55%
%G2/M (MCF-7 cells [9]; control 3.66): 23.63%
%S (MCF-7 cells [9]; control 27.37): 16.51%
%G0/G1 (MCF-7 cells [9]; control 66.42): 46.31%
Late apoptosis (HCT-116 cells [10]; control 0.11): 7.47%
Necrosis (HCT-116 cells [10]; control 0.12): 1.8%
Early apoptosis (HCT-116 cells [10]; control 0.16): 7.22%
Apoptosis, Total (HCT-116 cells [10]; control 0.39): 16.49%

COc1cccc2c1C(=O)c1c(O)c3c(c(O)c1C2=O)C[C@@](O)(C(=O)CO)C[C@@H]3O[C@H]1C[C@H](N)[C@H](O)[C@H](C)O1 [DOX, Doxorubicin, reference compound]
IC50 (WI38 normal cell): 55.3 ± 3 µM
IC50 ([5]; Homo sapiens, HepG2, MTT assay): 4.5 ± 0.2 µM

N#Cc1c(-c2cc3ccccc3o2)ccnc1NCCO [Compound 7, 4-(Benzofuran-2-yl)-2-(2-hydroxyethylamino)nicotinonitrile]
melting point: 164 to 166 °C
IC50 [1, 11]: 38.6 to 73.3 µM
IC50 [2]: 70.1 ± 3.8 µM
IC50 ([3]; Homo sapiens): 73.3 ± 4.2 µM
IC50 (WI38 normal cell): 59.5 ± 3.23 µM
IC50 ([4]; Homo sapiens, MCF7, MTT assay): 40.8 ± 2.5 µM
IC50 ([5]; Homo sapiens, HepG2, MTT assay): 53.4 ± 2.9 µM
IC50 [6, 12]: 38.6 µM
IC50 ([6]; MTT assay): 38.6 ± 2 µM

CC(=C(C#N)C#N)c1cc2ccccc2o1 [Compound 2, 2-(1-(benzofuran-2-yl)ethylidene)malononitrile]
melting point: 140 to 142 °C
IC50 [2]: 26.8 ± 2.2 µM
IC50 (EGFR TK): 1.09 µM
IC50 ([3]; Homo sapiens): 39 ± 2.4 µM
IC50 (WI38 normal cell): 86.5 ± 4.7 µM
IC50 ([4]; Homo sapiens, MCF7, MTT assay): 8.36 to 17.3 µM
IC50 ([4]; MTT assay): 8.36 ± 0.9 µM
IC50 ([5]; Homo sapiens, HepG2, MTT assay): 16.1 to 23.7 µM
IC50 ([5]; MTT assay): 16.1 ± 1.4 µM
IC50 [6, 12]: 8.81 to 13.8 µM
IC50 ([6]; MTT assay): 8.81 ± 0.7 µM

N#Cc1c(-c2cc3ccccc3o2)ccnc1NC1CCCCC1 [Compound 9, 4-(Benzofuran-2-yl)-2-(cyclohexylamino)nicotinonitrile]
melting point: 186 to 188 °C
IC50 [2]: 51.1 ± 3.6 µM
IC50 ([3]; Homo sapiens): 73.6 ± 4.1 µM
IC50 ([4]; Homo sapiens, MCF7, MTT assay): 35.2 ± 2.2 µM
IC50 ([5]; Homo sapiens, HepG2, MTT assay): 44.7 ± 2.7 µM
IC50 [6, 12]: 29.5 ± 1.8 µM

CCCCNc1nccc(-c2cc3ccccc3o2)c1C#N [Compound 6, 4-(Benzofuran-2-yl)-2-(butylamino)nicotinonitrile]
melting point: 112 to 114 °C
IC50 [1, 13]: 75.2 to 100 µM
IC50 [2]: > 100 µM
IC50 ([3]; Homo sapiens): 91.9 ± 5.1 µM
IC50 (WI38 normal cell): 204 ± 11.1 µM
IC50 ([4]; Homo sapiens, MCF7, MTT assay): 81.6 ± 4 µM
IC50 ([5]; Homo sapiens, HepG2, MTT assay): 79 ± 4.2 µM
IC50 [6, 12]: 56.4 ± 3.2 µM

CCNc1nccc(-c2cc3ccccc3o2)c1C#N [Compound 4, 4-(Benzofuran-2-yl)-2-(ethylamino)nicotinonitrile]
melting point: 155 to 158 °C
IC50 [1, 13]: 14.3 to 58.8 µM
IC50 [2]: 14.3 ± 1.3 µM
IC50 ([3]; Homo sapiens): 21 µM
IC50 [3]: 21.1 ± 1.6 µM
IC50 ([4]; Homo sapiens, MCF7, MTT assay): 55 ± 3.2 µM
IC50 ([5]; Homo sapiens, HepG2, MTT assay): 58.8 ± 3.3 µM
IC50 [6, 12]: 72.4 ± 3.8 µM

N#Cc1c(-c2cc3ccccc3o2)ccnc1NCc1ccccc1 [Compound 10, 4-(Benzofuran-2-yl)-2-(benzylamino)nicotinonitrile]
melting point: 180 to 182 °C
IC50 [2]: 30.9 ± 2.6 µM
IC50 (EGFR TK): 1.12 µM
IC50 ([3]; Homo sapiens): 46.2 ± 3 µM
IC50 ([4]; Homo sapiens, MCF7, MTT assay): 19.7 ± 1.6 µM
IC50 ([5]; Homo sapiens, HepG2, MTT assay): 34.3 ± 2.1 µM
IC50 [6, 12]: 27.5 ± 1.5 µM

CCCNc1nccc(-c2cc3ccccc3o2)c1C#N [Compound 5, 4-(Benzofuran-2-yl)-2-(propylamino)nicotinonitrile]
melting point: 118 to 120 °C
IC50 [1, 13]: 75.2 to 100 µM
IC50 [2]: 94.6 ± 4.9 µM
IC50 ([3]; Homo sapiens): 75.2 ± 4.8 µM
IC50 ([4]; Homo sapiens, MCF7, MTT assay): > 100 µM
IC50 ([5]; Homo sapiens, HepG2, MTT assay): 83.6 ± 4.4 µM
IC50 [6, 12]: 94.1 ± 5.1 µM
